Experiment: Longevity of ESR signals in aqueous solution obtained by adding an acid to sodium chlorite
Assay type: physicochemical
Settings: relatively low concentration of HCl (0.1 M sodium chlorite with 0.08 M HCl 1:1), stored in a dark location
Method: An aqueous solution obtained by adding an acid to sodium chlorite was prepared by mixing 0.1 M sodium chlorite with 2.5 M hydrochloric acid to achieve a desired concentration by using ion exchange water. The concentration of sodium chlorite was measured by standard iodometry.
An aqueous solution obtained by adding an acid to sodium chlorite was placed in a glass capillary tube with a length of 100 mm and inner diameter of 2 mm. The glass capillary was transferred to a capillary cell attached to an ESR cavity, and ESR measurement was taken by using an X band spectrometer (JEOL FA-100ESR) operated at 9.43 GHz at room temperature. The magnetic field was modulated at 100 KHz. […] The signal intensity was normalized with respect to an MnO marker, and the concentration of stable radical products was determined based on signal height by using an external standard TEMPOL. Radical species found in an aqueous solution obtained by adding an acid to sodium chlorite was quantified by using an integrated software for determining a spectral region mounted onto an ESR device.
Free radicals in an aqueous solution obtained by adding an acid to sodium chlorite were measured by using ESR measurement. […] The solution was measured 4 minutes later by ESR spectroscopy. […]

Substance: chlorine peroxide radical
- ESR signals remained stable: one
